Patent publication US6740671B2 (priority 2000, dated 2004)

Test: Foliar penetration of C14-labeled ethaboxam into cucumber
Format: in vivo
Conditions: cucumber foliage, 24 hours after spotting; result in words
Protocol: In order to investigate the relationship of the concentration of polyoxyalkylene alkyl ether and the foliar penetration of ethaboxam, foliar penetration experiment was carried out using radioisotope [C^14]-labeled ethaboxam as follows.
Cucumber seeds were sown in a horticultural bed soil of pots having a diameter of 6 cm and grown under glass for 3 weeks. 10 mg of the formulation prepared in the comparative example was diluted in 10 ml of tap water. 20 μl of the diluted solution was taken and thereto was added 1.0 μCi of ethaboxam labeled with C^14(81.7 μCi/mg) to prepare the diluted ethaboxam formulation labeled with C^14. […]
The plants were cut at a distance of 1 cm from the bottom of soil and the cuts were introduced into 250 ml Erlenmeyer flaska 50 ml of the mixed solution of acetonitrile and distilled water(volume ratio=1:4) was added thereto and then, the flask was plugged and shaken for 1 minute. Radioactivity of C^14-ethaboxam in the solution was measured with a liquid scintillation counter and the residue was combusted with a sample oxidizer to collect C^14-carbon dioxide, which was analyzed with the liquid scintillation counter.
Foliar penetration of ethaboxam is calculated by subtracting radioactivity in the solution from the total radioactivity, which is identical with radioactivity in the residue.

CCNc1nc(CC)c(C(=O)NC(C#N)c2cccs2)s1 (stereo not drawn) [ethaboxam, N-(α-cyano-2-thenyl)-4-ethyl-2-(ethylamino)-5-thiazolecarboxamide]
foliar penetration of ethaboxam: hardly penetrated into plants in the absence of adjuvant
